Results: patent US11427615B2, “Peptide compound and application thereof, and composition containing peptide compound” (XDCEXPLORER (SHANGHAI) CO., LTD., priority 2017, dated 2022)
Non-standard residues stand in square brackets, D forms with d. Residues, ends and D or L forms follow the SMILES beside them. *: point of attachment. dPhe(2,4-Cl2) = N[C@H](Cc1ccc(Cl)cc1Cl)C(=O)O; Dnp = O=[N+]([O-])c1ccc(*)c([N+](=O)[O-])c1; dAla(2-furyl) = N[C@H](Cc1ccco1)C(=O)O; Arg(Me) = CNC(=N)NCCC[C@H](N)C(=O)O; Hyp = O=C(O)[C@@H]1C[C@@H](O)CN1; 2Pal = N[C@@H](Cc1ccccn1)C(=O)O; Dap = NC[C@H](N)C(=O)O; azaGly = NNC(=O)O

Target: T1, human kiss1 receptor (GPR54) (Homo sapiens, UniProt Q969F8)
T1 construct: host or cells: NFAT-bla CHO-K1 cells (Chinese hamster ovary), purchased recombinant cell line
T1 sequence (Q969F8 whole entry): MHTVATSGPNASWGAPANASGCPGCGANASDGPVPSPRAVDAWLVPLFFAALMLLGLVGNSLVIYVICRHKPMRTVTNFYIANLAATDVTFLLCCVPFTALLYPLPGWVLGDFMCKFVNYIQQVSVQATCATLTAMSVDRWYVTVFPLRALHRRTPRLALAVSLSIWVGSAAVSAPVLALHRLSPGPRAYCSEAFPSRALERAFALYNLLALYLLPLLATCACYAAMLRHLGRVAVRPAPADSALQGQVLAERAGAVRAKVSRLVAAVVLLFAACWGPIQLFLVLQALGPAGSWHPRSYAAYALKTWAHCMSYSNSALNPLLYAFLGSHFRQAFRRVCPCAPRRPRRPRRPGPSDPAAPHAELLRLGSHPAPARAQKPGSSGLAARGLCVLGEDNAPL
Experiment: Kiss1 receptor (GPR54) binding activity of agonists, FRET detection in NFAT-bla CHO-K1 cells
Type: cell-based
Conditions: GPR54; measured according to the method of effect Embodiment 1; preliminary data; read-out: Preliminary measurement data (GPR54) EC50

EC50 | SMILES
0.03 nM | CNC(=N)NCCC[C@H](NC(=O)C(CC(C)C)C(=S)NCNC(=O)[C@H](Cc1ccccc1)NC(=O)[C@@H](NC(=O)[C@H](CC(N)=O)NC(=O)[C@@H]1C[C@@H](O)CN1C(=O)[C@@H](Cc1ccc(O)cc1)NC(C)=O)[C@@H](C)O)C(=O)N[C@@H](Cc1c[nH]c2ccccc12)C(N)=O (single isomer, unassigned) [YA-254, Ac-(D-Tyr)-Hyp-Asn-Thr-Phe-ψ(NHCS)Gly-Leu-Arg(Me)-Trp-NH2]
0.028 nM | CNC(=N)NCCC[C@H](NC(=O)C(CC(C)C)C(=S)NCNC(=O)[C@H](Cc1ccccc1)NC(=O)[C@@H](NC(=O)[C@H](CC(N)=O)NC(=O)[C@@H]1CC(F)(F)CN1C(=O)[C@@H](Cc1ccc(Cl)cc1Cl)NC(C)=O)[C@@H](C)O)C(=O)N[C@@H](Cc1c[nH]c2ccccc12)C(N)=O (single isomer, unassigned) [YA-255, Ac-[D-Phe(2,4-DiCl)]-DiFluorPro-Asn-Thr-Phe-ψ(NHCS) Gly-Leu-Arg(Me)-Trp-NH2]
0.01 nM | CNC(=N)NCCC[C@H](NC(=O)C(CC(C)C)C(=O)NCNC(=O)[C@H](Cc1ccccc1)NC(=O)[C@@H](NC(=O)[C@H](CC(N)=O)NC(=O)[C@@H]1C[C@@H](O)CN1C(=O)[C@@H](Cc1ccc(O)cc1)NC(C)=O)[C@@H](C)O)C(=O)N[C@@H](Cc1c[nH]c2ccccc12)C(N)=O (single isomer, unassigned) [YA-303, Ac-(D-Tyr)-Hyp-Asn-Thr-Phe-ψ(NHCO)Gly-Leu-Arg(Me)-Trp-NH2]
10 nM | CC(=O)N[C@@H](Cc1ccc(O)cc1)C(=O)N[C@@H](CC(N)=O)C(=O)N[C@@H](Cc1c[nH]c2ccccc12)C(=O)N[C@@H](CC(N)=O)C(=O)N[C@@H](CO)C(=O)N[C@@H](Cc1ccccc1)C(=O)NCC(=O)N[C@@H](CC(C)C)C(=O)N[C@@H](CCCNC(=N)N)C(=O)N[C@@H](Cc1ccccc1)C(N)=O [YA-2, Ac-Tyr-Asn-Trp-Asn-Ser-Phe-Gly-Leu-Arg-Phe-NH2]
0.015 nM | CNC(=N)NCCC[C@H](NC(=O)[C@H](CC(C)C)NC(=O)NNC(=O)[C@H](Cc1ccccc1)NC(=O)[C@@H](NC(=O)[C@H](CC(N)=O)NC(=O)[C@@H]1C[C@@H](O)CN1C(=O)[C@@H](Cc1ccc(Cl)cc1Cl)NC(C)=O)[C@@H](C)O)C(=O)N[C@@H](Cc1c[nH]c2ccccc12)C(N)=O [YA-42, Ac-[D-Phe(2,4-DiCl)]-Hyp-Asn-Thr-Phe-azaGly-Leu-Arg(Me)-Trp-NH2] (Ac-[dPhe(2,4-Cl2)][Hyp]NTF[azaGly]L[Arg(Me)]W-NH2)
0.095 nM | CNC(=N)NCCC[C@H](NC(=O)[C@H](CC(C)C)NC(=O)NNC(=O)[C@H](Cc1ccccc1)NC(=O)[C@@H](NC(=O)[C@H](CC(N)=O)NC(=O)[C@@H]1C[C@@H](O)CN1C(=O)[C@@H](Cc1ccco1)NC(C)=O)[C@@H](C)O)C(=O)N[C@@H](Cc1c[nH]c2ccccc12)C(N)=O [YA-43, Ac-(D-2Fua)-Hyp-Asn-Thr-Phe-azaGly-Leu-Arg(Me)-Trp-NH2] (Ac-[dAla(2-furyl)][Hyp]NTF[azaGly]L[Arg(Me)]W-NH2)
0.18 nM | CNC(=N)NCCC[C@H](NC(=O)[C@H](CC(C)C)NC(=O)NNC(=O)[C@H](Cc1ccccc1)NC(=O)[C@@H](NC(=O)[C@H](CC(N)=O)NC(=O)[C@@H]1C[C@@H](O)CN1C(=O)[C@H](Cc1ccccn1)NC(C)=O)[C@@H](C)O)C(=O)N[C@@H](Cc1c[nH]c2ccccc12)C(N)=O [YA-68, Ac-2Pal-Hyp-Asn-Thr-Phe-azaGly-Leu-Arg(Me)-Trp-NH2] (Ac-[2Pal][Hyp]NTF[azaGly]L[Arg(Me)]W-NH2)

Same assay, conditions: NFAT-bla CHO-K1 cells that express human kiss1 receptor (GPR54); FRET; cells cultured with compound for 4 hours; read-out: GPR54 EC50/nM

EC50 | SMILES
2.11 nM | CC(=O)N[C@@H](Cc1ccc(O)cc1)C(=O)N[C@@H](CC(N)=O)C(=O)N[C@@H](Cc1c[nH]c2ccccc12)C(=O)N[C@@H](CC(N)=O)C(=O)N[C@@H](CO)C(=O)N[C@@H](Cc1ccccc1)C(=O)NCC(=O)N[C@@H](CC(C)C)C(=O)N[C@@H](CCCNC(=N)N)C(=O)N[C@@H](Cc1ccccc1)C(N)=O [YA-2, Ac-Tyr-Asn-Trp-Asn-Ser-Phe-Gly-Leu-Arg-Phe-NH2]

Same assay, conditions: Preliminary measurement data (GPR54) EC50, nM), GPR54; measured according to the method of effect Embodiment 1; preliminary data

SMILES | EC50
CNC(=N)NCCC[C@H](NC(=O)[C@H](CC(C)C)NC(=O)NNC(=O)[C@H](Cc1ccccc1)NC(=O)[C@@H](NC(=O)[C@H](CC(N)=O)NC(=O)[C@@H]1C[C@@H](O)CN1C(=O)[C@H](CNc1ccc([N+](=O)[O-])cc1[N+](=O)[O-])NC(C)=O)[C@@H](C)O)C(=O)N[C@@H](Cc1c[nH]c2ccccc12)C(N)=O [YA-41, Ac-Dap(Dnp)-Hyp-Asn-Thr-Phe-azaGly-Leu-Arg(Me)-Trp-NH2] (Ac-[Dap](Dnp)[Hyp]NTF[azaGly]L[Arg(Me)]W-NH2) | 0.095 nM
